Legend:
Assay type in all cases: in vivo
[1] = test system: Kochia (Kochia scoparia); assay: Test A preemergence; conditions: Bassia scoparia, pre-emergence, 240 h, preemergence, read-out: Kochia plant response rating; for pest or weed control at 125 g/ha: 125 g ai/ha, approx. 10 d; for pest or weed control at 500 g/ha: 500 g ai/ha
Procedure, shortened: (§1)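 Seeds sprayed preemergence with a directed soil spray, or plants at 2 to 10 cm height and one- to two-leaf stage sprayed postemergence, with test chemicals in a non-phytotoxic solvent mixture containing surfactant, in loam soil–sand blend. Injury rated visually against untreated controls after about 10 d in greenhouse, 0 (no effect) to 100 (complete control).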

[2] = test system: barnyardgrass (Echinochloa crus-galli); assay: Test A preemergence; conditions: Echinochloa crus-galli, pre-emergence, 240 h, preemergence, read-out: Barnyardgrass plant response rating; for pest or weed control at 125 g/ha: 125 g ai/ha, approx. 10 d; for pest or weed control at 500 g/ha: 500 g ai/ha
Procedure, shortened: as §1

[3] = test system: giant foxtail (Setaria faberii); assay: Test A preemergence; conditions: Setaria faberi, pre-emergence, 240 h, preemergence, read-out: Foxtail, Giant plant response rating; for pest or weed control at 125 g/ha: 125 g ai/ha, approx. 10 d; for pest or weed control at 500 g/ha: 500 g ai/ha
Procedure, shortened: as §1

[4] = test system: pigweed (Amaranthus retroflexus); assay: Test A preemergence; conditions: Amaranthus retroflexus, pre-emergence, 240 h, preemergence, read-out: Pigweed plant response rating; for pest or weed control at 125 g/ha: 125 g ai/ha, approx. 10 d; for pest or weed control at 500 g/ha: 500 g ai/ha
[5] = test system: ragweed (common ragweed, Ambrosia elatior); assay: Test A preemergence; conditions: Ambrosia artemisiifolia, pre-emergence, 240 h, preemergence, read-out: Ragweed plant response rating; for pest or weed control at 125 g/ha: 125 g ai/ha, approx. 10 d; for pest or weed control at 500 g/ha: 500 g ai/ha
Procedure, shortened: as §1

[6] = test system: ryegrass, Italian (Italian ryegrass, Lolium multiflorum); assay: Test A preemergence; conditions: Lolium multiflorum, pre-emergence, 240 h, preemergence, read-out: Ryegrass, Italian plant response rating; for pest or weed control at 125 g/ha: 125 g ai/ha, approx. 10 d; for pest or weed control at 500 g/ha: 500 g ai/ha
Procedure, shortened: as §1

[7] = test system: Galium (catchweed bedstraw, Galium aparine); assay: Test A postemergence; conditions: Galium, post-emergence, 240 h, postemergence, read-out: Galium plant response rating; for pest or weed control at 125 g/ha: 125 g ai/ha, visual injury on 0 to 100 scale (0 no effect, 100 complete control), approx. 10 d; for pest or weed control at 500 g/ha: 500 g ai/ha, 0 to 100 scale, 0 is no effect, 100 is complete control
Procedure, shortened: as §1

[8] = test system: Kochia (Kochia scoparia); assay: Test A postemergence; conditions: Bassia scoparia, post-emergence, 240 h, postemergence, read-out: Kochia plant response rating; for pest or weed control at 125 g/ha: 125 g ai/ha, visual injury on 0 to 100 scale (0 no effect, 100 complete control), approx. 10 d; for pest or weed control at 500 g/ha: 500 g ai/ha, 0 to 100 scale, 0 is no effect, 100 is complete control
Procedure, shortened: as §1

[9] = test system: barnyardgrass (Echinochloa crus-galli); assay: Test A postemergence; conditions: Echinochloa crus-galli, post-emergence, 240 h, postemergence, read-out: Barnyardgrass plant response rating; for pest or weed control at 125 g/ha: 125 g ai/ha, visual injury on 0 to 100 scale (0 no effect, 100 complete control), approx. 10 d; for pest or weed control at 500 g/ha: 500 g ai/ha, 0 to 100 scale, 0 is no effect, 100 is complete control
Procedure, shortened: as §1

[10] = test system: corn (Zea mays); assay: Test A postemergence; conditions: Zea mays, post-emergence, 240 h, postemergence, read-out: Corn plant response rating; for plant injury at 125 g/ha: 125 g ai/ha, visual injury on 0 to 100 scale (0 no effect, 100 complete control), approx. 10 d; for plant injury at 500 g/ha: 500 g ai/ha, 0 to 100 scale, 0 is no effect, 100 is complete control
Procedure, shortened: as §1

[11] = test system: giant foxtail (Setaria faberii); assay: Test A postemergence; conditions: Setaria faberi, post-emergence, 240 h, postemergence, read-out: Foxtail, Giant plant response rating; for pest or weed control at 125 g/ha: 125 g ai/ha, visual injury on 0 to 100 scale (0 no effect, 100 complete control), approx. 10 d; for pest or weed control at 500 g/ha: 500 g ai/ha, 0 to 100 scale, 0 is no effect, 100 is complete control
Procedure, shortened: as §1

[12] = test system: pigweed (Amaranthus retroflexus); assay: Test A postemergence; conditions: Amaranthus retroflexus, post-emergence, 240 h, postemergence, read-out: Pigweed plant response rating; for pest or weed control at 125 g/ha: 125 g ai/ha, visual injury on 0 to 100 scale (0 no effect, 100 complete control), approx. 10 d; for pest or weed control at 500 g/ha: 500 g ai/ha, 0 to 100 scale, 0 is no effect, 100 is complete control
Procedure, shortened: as §1

[13] = test system: ragweed (common ragweed, Ambrosia elatior); assay: Test A postemergence; conditions: Ambrosia artemisiifolia, post-emergence, 240 h, postemergence, read-out: Ragweed plant response rating; for pest or weed control at 125 g/ha: 125 g ai/ha, visual injury on 0 to 100 scale (0 no effect, 100 complete control), approx. 10 d; for pest or weed control at 500 g/ha: 500 g ai/ha, 0 to 100 scale, 0 is no effect, 100 is complete control
Procedure, shortened: as §1

[14] = test system: ryegrass, Italian (Italian ryegrass, Lolium multiflorum); assay: Test A postemergence; conditions: Lolium multiflorum, post-emergence, 240 h, postemergence, read-out: Ryegrass, Italian plant response rating; for pest or weed control at 125 g/ha: 125 g ai/ha, visual injury on 0 to 100 scale (0 no effect, 100 complete control), approx. 10 d; for pest or weed control at 500 g/ha: 500 g ai/ha, 0 to 100 scale, 0 is no effect, 100 is complete control
Procedure, shortened: as §1

[15] = test system: wheat (Triticum aestivum); assay: Test A postemergence; conditions: Triticum aestivum, post-emergence, 240 h, postemergence, read-out: Wheat plant response rating; for plant injury at 125 g/ha: 125 g ai/ha, visual injury on 0 to 100 scale (0 no effect, 100 complete control), approx. 10 d; for plant injury at 500 g/ha: 500 g ai/ha, 0 to 100 scale, 0 is no effect, 100 is complete control
Procedure, shortened: as §1

[16] = 0 to 100 scale where 0 is no effect and 100 is complete control
[17] = visual injury rating about 10 d after treatment, 0 to 100 scale (0 no effect, 100 complete control)

| Compound | pest or weed control at 125 g/ha [1, 16] [%] | pest or weed control at 125 g/ha [2, 16] [%] | pest or weed control at 125 g/ha [3, 16] [%] | pest or weed control at 125 g/ha [4, 16] [%] | pest or weed control at 125 g/ha [5, 16] [%] | pest or weed control at 125 g/ha [6, 16] [%] | pest or weed control at 125 g/ha [7] [%] | pest or weed control at 500 g/ha [7] [%] | pest or weed control at 125 g/ha [8] [%] | pest or weed control at 500 g/ha [8] [%] | pest or weed control at 125 g/ha [9] [%] | pest or weed control at 500 g/ha [9] [%] | plant injury at 125 g/ha [10] [%] | plant injury at 500 g/ha [10] [%] | pest or weed control at 125 g/ha [11] [%] | pest or weed control at 500 g/ha [11] [%] | pest or weed control at 125 g/ha [12] [%] | pest or weed control at 500 g/ha [12] [%] | pest or weed control at 125 g/ha [13] [%] | pest or weed control at 500 g/ha [13] [%] | other results |
| --- | --- | --- | --- | --- | --- | --- | --- | --- | --- | --- | --- | --- | --- | --- | --- | --- | --- | --- | --- | --- | --- |
| Cc1cc([C@H]2CN(C)C(=O)[C@@H]2C(=O)Nc2ccccc2F)ccc1Br [Compound 1098] | 20 | 90 | 90 | 0 | 0 | 20 | 30 | 40 | 20 | 60 | 80 | 90 | 0 | 70 | 80 | 90 | 0 | 0 | 0 | 0 | pest or weed control at 500 g/ha [1, 17]: 70%; pest or weed control at 500 g/ha [2, 17]: 90%; pest or weed control at 500 g/ha [3, 17]: 90%; pest or weed control at 500 g/ha [4, 17]: 0%; pest or weed control at 500 g/ha [5, 17]: 0%; pest or weed control at 500 g/ha [6, 17]: 50%; pest or weed control at 125 g/ha [14]: 40%; pest or weed control at 500 g/ha [14]: 50%; plant injury at 125 g/ha [15]: 0%; plant injury at 500 g/ha [15]: 50% |
| CC(C)Oc1ccc([C@H]2CNC(=O)[C@@H]2C(=O)Nc2cccc(F)c2F)cc1 [Compound 1136] | 0 | 30 | 30 | 0 | 0 | 0 | 0 | 20 | 0 | 0 | 30 | 90 | 0 | 0 | 20 | 90 | 0 | 0 | 0 | 0 | pest or weed control at 500 g/ha [1, 16]: 80%; pest or weed control at 500 g/ha [2, 16]: 90%; pest or weed control at 500 g/ha [3, 16]: 90%; pest or weed control at 500 g/ha [4, 16]: 0%; pest or weed control at 500 g/ha [5, 16]: 0%; pest or weed control at 500 g/ha [6, 16]: 30%; pest or weed control at 125 g/ha [14]: 0%; pest or weed control at 500 g/ha [14]: 0%; plant injury at 125 g/ha [15]: 0%; plant injury at 500 g/ha [15]: 0% |
